In assay [1] the test system is Trypanosoma brucei brucei. As to the kind of experiment: Antitrypanosomal activity against bloodstream form of Trypanosoma brucei brucei Lister 427 after 72 hrs by resazurin based fluorescence assay. The format is functional. As to conditions: Lister 427, 72 h.
The nature of assay [2]: Cytotoxicity against human MRC5 SV2 cells after 48 hrs by resazurin based fluorescence assay. Conditions: MRC-5 SV2, 48 h. The format is cell-based. (In general: Alamar Blue is a resazurin reagent that responds to reducing activity.)
In another assay the test system is Trypanosoma cruzi. As to the kind of experiment: Antitrypanosomal activity against Trypanosoma cruzi Tulahuen C4 amastigotes infected in rat L6 cells after 96 hrs by beta-galactosidase reporter gene assay. Conditions: Tulahuen C4, L6, 96 h. The format is functional, cell-based.
For the next assay, the system named is L6. As to the kind of experiment: Cytotoxicity against rat L6 cells assessed as reduction in cell viability after 72 hrs by resazurin based fluorescence assay. Conditions: L6, 72 h.
A further assay deals with Leishmania donovani. As to the kind of experiment: Antileishmanial activity against intracellular […] stage of Leishmania donovani MHOM/ET/67/HU3 infected in human THP1 cells measured after 72 hrs by luciferase reporter gene assay. Format: functional, cell-based. Conditions: MHOM/ET/67/HU3, THP-1, 72 h.
For a further assay, the system named is THP-1. As to the kind of experiment: Cytotoxicity against human THP1 cells assessed as reduction in cell viability after 72 hrs by MTT assay. The format is cell-based. As to conditions: THP-1, 72 h. On the technique in general: Tetrazolium assays rely on reduction of a dye to a coloured formazan, in cell work by metabolically active cells.

Consider `N#Cc1ccc(-c2ccc3[nH]c(=O)nc(-c4ccccc4)c3c2)cc1`, for which the EC50 (in general, the concentration that produces a half-maximal response) in assay [1] was 1.71 µM; in assay [2], more than 50 µM; in the assay with Trypanosoma cruzi, 17.4 µM; in the assay on L6, more than 50 µM; with Leishmania donovani it was more than 5 µM; in the assay with THP-1, more than 50 µM.

Consider `O=c1nc(-c2ccccc2)c2cc(-c3ccc(N4CCCC4)nc3)ccc2[nH]1`, for which the EC50 in assay [1] is 1.77 µM; in assay [2], more than 50 µM; in the assay on Trypanosoma cruzi it was 6.29 µM; in the assay on L6 it was more than 50 µM; with Leishmania donovani it was more than 5 µM; in the assay on THP-1 it was more than 50 µM.

Consider `O=c1nc(-c2ccccc2)c2cc(-c3cncnc3)ccc2[nH]1`, for which the EC50 was 10 µM in assay [1]; more than 50 µM in assay [2]; more than 20 µM in the assay on Trypanosoma cruzi; more than 50 µM in the assay on L6; more than 5 µM in the assay with Leishmania donovani; more than 50 µM in the assay on THP-1.

For the compound `CNC(=O)c1cccc(-c2ccc3[nH]c(=O)nc(-c4ccccc4)c3c2)c1`, the EC50 is 5.7 µM in assay [1]; more than 50 µM in assay [2]; more than 20 µM in the assay on Trypanosoma cruzi; more than 50 µM in the assay on L6; more than 5 µM in the assay with Leishmania donovani; more than 50 µM with THP-1.

In the case of `COc1ccccc1-c1nc(=O)[nH]c2ccc(-c3cc[nH]n3)cc12`, the EC50 in assay [1] is 29 µM; in assay [2] it was more than 50 µM; with Trypanosoma cruzi, 20 µM; in the assay on L6, more than 50 µM; with Leishmania donovani, more than 5 µM; with THP-1, more than 50 µM.

As for `O=c1nc(-c2ccccc2)c2cc(-c3ccc(C(F)(F)F)nc3)ccc2[nH]1`, the EC50 is 5.21 µM in assay [1]; more than 50 µM in assay [2]; 18.4 µM in the assay with Trypanosoma cruzi; more than 50 µM with L6; more than 5 µM in the assay with Leishmania donovani; more than 50 µM in the assay with THP-1.

As to `Cc1cc(-c2ccc3[nH]c(=O)nc(-c4ccccc4)c3c2)ccn1`, the EC50 in assay [1] is 5.32 µM; in assay [2] it was more than 50 µM; in the assay with Trypanosoma cruzi it was 16.8 µM; with L6, more than 50 µM; in the assay with Leishmania donovani it was more than 5 µM; in the assay with THP-1, more than 50 µM.

Turning to `Cn1nccc1-c1ccc2[nH]c(=O)nc(-c3ccccc3)c2c1`, the EC50 in assay [1] is 5.96 µM; in assay [2], more than 50 µM; in the assay with Trypanosoma cruzi it was 17.4 µM; in the assay with L6 it was more than 50 µM; in the assay on Leishmania donovani, more than 5 µM; with THP-1, more than 50 µM.

Take `O=c1nc(-c2ccccc2)c2ccc(-c3ccc(F)cc3)cc2[nH]1`: the EC50 in assay [1] was 4.65 µM; in assay [2], more than 50 µM; with Trypanosoma cruzi, more than 20 µM; with Leishmania donovani it was more than 5 µM; with THP-1 it was more than 50 µM.

For the compound `O=c1nc(-c2ccccc2)c2cc(-c3ccc(N4CCOCC4)cc3)ccc2[nH]1`, the EC50 in assay [1] was 2.17 µM; in assay [2] it was 23.8 µM; with Trypanosoma cruzi it was 8.3 µM; in the assay on L6 it was 22.7 µM; with Leishmania donovani, more than 5 µM; in the assay on THP-1, more than 50 µM.

On to `O=c1nc(-c2ccccc2)c2cc(-c3cn[nH]c3)ccc2[nH]1`, for which the EC50 is 1.44 µM in assay [1]; 22 µM in assay [2]; 8.33 µM in the assay on Trypanosoma cruzi; more than 50 µM with L6; more than 5 µM in the assay with Leishmania donovani; more than 50 µM in the assay with THP-1.

As to `Cc1ccncc1-c1ccc2[nH]c(=O)nc(-c3ccccc3)c2c1`, the EC50 in assay [1] is 5.07 µM; in assay [2], more than 50 µM; in the assay with Trypanosoma cruzi it was 8.94 µM; in the assay with L6 it was more than 50 µM; in the assay with Leishmania donovani, more than 5 µM; in the assay with THP-1, more than 50 µM.

Consider `O=c1nc(-c2ccccc2)c2ccc(-c3cncnc3)cc2[nH]1`, for which the EC50 in assay [1] is more than 40 µM; in assay [2], more than 50 µM; in the assay on Trypanosoma cruzi, more than 20 µM; with Leishmania donovani, more than 5 µM; with THP-1, more than 50 µM.

As for `O=c1nc(-c2ccccc2)c2ccc(-c3ccncc3)cc2[nH]1`, the EC50 was 14.2 µM in assay [1]; more than 50 µM in assay [2]; more than 20 µM with Trypanosoma cruzi; more than 5 µM in the assay on Leishmania donovani; more than 50 µM in the assay on THP-1.

(Values after ChEMBL document CHEMBL4052780, “Novel 1,2-dihydroquinazolin-2-ones: Design, synthesis, and biological evaluation against Trypanosoma brucei” (Bioorg Med Chem Lett, 2017).)
